Assay results from US20050239654A1, “Synergistically acting herbicidal mixtures” (priority 2002, published 2005).

Assays:
Assay in all cases: Herbicidal action, post-emergence treatment, greenhouse
Assay type in all cases: in vivo
Galium aparine = system: Galium aparine
Description: (§1) The mixtures according to the invention were applied pre- or post-emergence (foliar treatment). The herbicidal compounds of component B and, if desired, of component C were applied in the formulation in which they are present as commercially available product.
(§2) The herbicidally active compounds of components A), B) and, if desired, C) were applied in succession or jointly, in the latter case in some cases as a tank mix and in some cases as a ready-mix, in the form of emulsions, aqueous solutions or suspensions, the vehicle being water (300-400 l/ha). In the case of the field trials, application was effected with the aid of a mobile plot sprayer.
(§3) The test period extended over 3 to 8 weeks, and the stands were also observed at later points in time.
(§4) Damage by the herbicidal compositions was evaluated with reference to a scale of 0% to 100 in comparison with untreated control plots. 0 means no damage and 100 means complete destruction of the plants.
(§5) In these examples, the value E at which only an additive effect of the individual active ingredients is to be expected was calculated by the method of S. R. Colby (Calculating synergistic and antagonistic responses of herbicide combinations, Weeds 15, 20 pp (1967)).
(§6) This was done using the formula [formula] where • X=Percentage of the herbicidal action of X at an application rate of x; • Y=Percentage of the herbicidal action of Y at an application rate of Y; • E=expected herbicidal action of X+Y at rates of application x+y (in %); or the formula [formula] where • X=Percentage of the herbicidal action of X at an application rate of x; • Y=Percentage of the herbicidal action of Y at an application rate of y; • Z=Percentage of the herbicidal action of Z at an application rate of z; • E=expected herbicidal action of X+Y+Z at rates of application x+y+z (in %)
(§7) If the value observed exceeds the value E calculated in accordance with Colby's formula, then synergism is present.

Commelina benghalensis = details: Table 4, 3.91 g/ha ai
Description: as §1, §2, §3, §4, §5, §6, §7

Avena fatua = system: Avena fatua
Description: as §1, §2, §3, §4, §5, §6, §7

Abutilon theophrasti = system: Abutilon theophrasti
Description: as §1, §2, §3, §4, §5, §6, §7

Amaranthus retroflexus = system: Amaranthus retroflexus
Description: as §1, §2, §3, §4, §5, §6, §7

Polygonum persicaria = system: Polygonum persicaria
Description: as §1, §2, §3, §4, §5, §6, §7

Brachiaria plantaginea = system: Brachiaria plantaginea
Description: as §1, §2, §3, §4, §5, §6, §7

Pharbitis purpurea = details: Table 12, 62.5 g/ha ai
Description: as §1, §2, §3, §4, §5, §6, §7

Echinochloa crus-galli = system: Echinochloa crus-galli
Description: as §1, §2, §3, §4, §5, §6, §7

With `Cc1c(C(=O)c2cnn(C)c2O)ccc(S(C)(=O)=O)c1C1=NOCC1` [Ia.29, 4-[2-methyl-3-(4,5-dihydroisoxazol-3-yl)-4-methylsulfonyl-benzoyl]-1-methyl-5-hydroxy-1H-pyrazole] the “Galium aparine Damage” value (Galium aparine; Table 7, 0.98 g/ha ai) was 20%, the “Galium aparine Damage” value (Galium aparine; Table 8, 1.95 g/ha ai) was 30% and the “Commelina benghalensis Damage” value (Commelina benghalensis) was 50%. For the same compound, the “Avena fatua Damage” value (Avena fatua; Table 5, 0.98 g/ha ai) was 0%, the “Avena fatua Damage” value (Avena fatua; Table 6, 1.95 g/ha ai) was 10% and the “Abutilon theophrasti Damage” value (Abutilon theophrasti; Table 3, 0.98 g/ha ai) was 30%. For the same compound, the “Abutilon theophrasti Damage” value (Abutilon theophrasti; Table 9, 7.81 g/ha ai) was 85%, the “Amaranthus retroflexus Damage” value (Amaranthus retroflexus; Table 5, 0.98 g/ha ai) was 60% and the “Amaranthus retroflexus Damage” value (Amaranthus retroflexus; Table 7, 0.98 g/ha ai) was 60%.
`CCNc1nc(Cl)nc(NC(C)C)n1` [atrazine] was tested, and the “Polygonum persicaria Damage” value (Polygonum persicaria; Table 11, 125 g/ha ai) was 60%, the “Polygonum persicaria Damage” value (Polygonum persicaria; Table 13, 62.5 g/ha ai) was 40% and the “Polygonum persicaria Damage” value (Polygonum persicaria; Table 17, 62.5 g/ha ai) was 40%. For the same compound, the “Galium aparine Damage” value (Galium aparine; Table 7, 15.6 g/ha ai) was 0%, the “Galium aparine Damage” value (Galium aparine; Table 8, 31.25 g/ha ai) was 20% and the “Galium aparine Damage” value (Galium aparine; Table 11, 125 g/ha ai) was 60%. For the same compound, the “Galium aparine Damage” value (Galium aparine; Table 15, 125 g/ha ai) was 60%, the “Brachiaria plantaginea Damage” value (Brachiaria plantaginea; Table 10, 125 g/ha ai) was 25% and the “Brachiaria plantaginea Damage” value (Brachiaria plantaginea; Table 16, 62.5 g/ha ai) was 20%. For the same compound, the “Abutilon theophrasti Damage” value (Abutilon theophrasti; Table 9, 125 g/ha ai) was 30%, the “Abutilon theophrasti Damage” value (Abutilon theophrasti; Table 14, 125 g/ha ai) was 30% and the “Pharbitis purpurea Damage” value (Pharbitis purpurea) was 80%. The “Echinochloa crus-galli Damage” value (Echinochloa crus-galli; Table 10, 125 g/ha ai) was 30%, the “Echinochloa crus-galli Damage” value (Echinochloa crus-galli; Table 12, 62.5 g/ha ai) was 20% and the “Echinochloa crus-galli Damage” value (Echinochloa crus-galli; Table 14, 125 g/ha ai) was 30%. The “Echinochloa crus-galli Damage” value (Echinochloa crus-galli; Table 16, 62.5 g/ha ai) was 20% and the “Amaranthus retroflexus Damage” value (Amaranthus retroflexus; Table 7, 15.6 g/ha ai) was 40%.
